# Experiments:
# [1] = test system: ferroptosis marker proteins (COX2, GPX4, FTH1, and TFR) in the GRIM-19−/− mouse gastric mucosal tissue; assay: WB of ferroptosis marker proteins in GRIM-19−/− mouse gastric mucosal tissue intervened with ferrostatin-1; type: in vivo; conditions: ferrostatin-1 injected, FIG. 9B
# Procedure: (§1) 4. The expression of GRIM-19 was analyzed by WB, and a specific process was as follows: • (1) The cells were subjected to lysis with an RIPA lysis buffer (Beyotime) on ice for 30 min or more. • (2) A resulting lysate was centrifuged at 12,000 rpm for 10 min, and a resulting supernatant was collected. • (3) A corresponding volume of a sodium dodecyl sulfate-polyacrylamide gel electrophoresis (SDS-PAGE) protein loading buffer was added, and a resulting mixture was incubated in a metal bath at 100° C. for 10 min. • (4) SDS-PAGE was conducted. • (5) Blocking was conducted at room temperature for 30 min. • (6) A primary antibody was added, and a resulting mixture was incubated overnight at 4° C. on a shaker. • (7) A membrane was washed with TBST three times for 10 min each time. • (8) A secondary antibody was added, and a resulting mixture was incubated for 1 h at room temperature on a shaker. • (9) A membrane was washed with TBST three times for 10 min each time. • (10) Development was conducted.
# (§2) WB was used to analyze the expression of ferroptosis markers in the GES-1-134 cell and the GRIM-19^−/− mouse gastric mucosal tissue that each were intervened with ferrostatin-1.
# [2] = test system: ferroptosis marker proteins (COX2, GPX4, FTH1, and TFR) in the GES-1-134 cell; assay: WB of ferroptosis marker proteins in GES-1-134 cell treated with ferrostatin-1; type: cell-based, Human; conditions: ferrostatin-1 0, 5, 10 μM, FIG. 9A
# Procedure: as §1, §2
# [3] = test system: GES-1-134 cell (GRIM-19-knockout human gastric mucosal epithelial cell GES-1); assay: CCK-8 proliferation viability of GES-1-134 cell intervened with ferrostatin-1; type: cell-based; conditions: CCK-8, FIG. 8
# Procedure: A CCK-8 kit (Solarbio) was used to analyze the proliferation viability changes of GES-1-NC and GES-1-134 cells, and a specific process was as follows: • (1) The cells were inoculated into a 96-well plate at 5,000 cells/well. • (2) The cells were cultivated at 37° C. and 5% CO2 for 24 h, 48 h, and 72 h. • (3) 10 μL of a CCK-8 solution was added to each well during detection. • (4) The plate was incubated in an incubator for 1 h. • (5) A microplate reader was used to determine the absorbance at 450 nm.
# A CCK-8 kit was used to analyze a change of proliferation viability of the GES-1-134 cell intervened with the ferroptosis inhibitor ferrostatin-1. After the GES-1-134 cell was intervened with the ferroptosis inhibitor ferrostatin-1, the proliferation ability was increased and the viability was recovered.
# [4] = test system: inflammatory factors IL-6, TNF-α, VEGF, GM-CSF, IL-1β, and IL-33 in the GES-1-134 cell; assay: WB of inflammatory factors in GES-1-134 cell intervened with ferrostatin-1; type: cell-based, Human; conditions: GES-1-134 cell in vitro, FIG. 10A
# Procedure: as §1
# (§3) WB was used to detect the expression of inflammatory factors in the GES-1-134 cell and GRIM-19^−/− mouse after being intervened with the ferroptosis inhibitor ferrostatin-1.
# [5] = test system: SPEM marker proteins TFF2, Mist1, Clusterin-1, HE4, and MUC6 in the GRIM-19−/− mouse gastric mucosal tissue; assay: WB of SPEM markers in GRIM-19−/− mouse gastric mucosal tissue intervened with ferrostatin-1; type: in vivo; conditions: intraperitoneally injected, compared with the PBS injection control, FIG. 11A
# Procedure: as §1
# WB was used to detect the expression of SPEM markers in the gastric mucosal tissue of the GRIM-19^−/− mouse intraperitoneally injected with the ferroptosis inhibitor ferrostatin-1.
# [6] = test system: inflammatory factors in the GRIM-19−/− mouse gastric mucosal tissue; assay: WB of inflammatory factors in GRIM-19−/− mouse gastric mucosal tissue intervened with ferrostatin-1; type: in vivo
# Procedure: as §1, §3
# [7] = test system: GIF, GSII, and Mist1 positive cells in GRIM-19−/− mouse gastric mucosal tissue; assay: GIF/GSII/Mist1 immunofluorescence colocalization analysis of SPEM markers in GRIM-19−/− mouse gastric mucosal tissue; type: in vivo; conditions: intraperitoneally injected, compared with the PBS group, FIG. 11B
# Procedure: After a mouse was intraperitoneally injected with the ferroptosis inhibitor ferrostatin-1, an immunofluorescence technique was used to analyze the GIF, GSII, and Mist1 positive colocalization expression of SPEM markers in a gastric mucosal tissue, and a specific process was as follows: • (1) embedding a tissue with OCT; • (2) sectioning; • (3) fixing with 4% PFA; • (4) blocking with serum; • (5) incubating with a primary antibody overnight at 4° C.; • (6) rinsing with PBS 3 times; • (7) incubating with a secondary antibody at room temperature for 2 h; • (8) rinsing with PBS 3 times; • (9) counter-staining with DAPI for 10 min; • (10) rinsing with PBS 3 times; and • (11) mounting with an anti-fluorescence attenuation agent.
# [8] = compared with the PBS injection control, WB, FIG. 10B
smiles,measurement,setting,value
CCOC(=O)c1ccc(NC2CCCCC2)c(N)c1 [ferrostatin-1],expression level of COX-2,[1],showed the same change trend
same,expression level of FTH1,[1],showed the same change trend
same,expression level of GPX4,[1],showed the same change trend
same,expression level of TFR,[1],showed the same change trend
same,expression level of COX-2,[2],decreased
same,expression level of FTH1,[2],increased
same,expression level of GPX4,[2],increased
same,expression level of TFR,[2],decreased
same,proliferation ability,[3],increased
same,viability,[3],recovered
same,expression level of GM-CSF,[4],significantly reduced
same,expression level of IL-1β,[4],significantly reduced
same,expression level of IL-6,[4],significantly reduced
same,expression level of IL-33,[4],significantly reduced
same,expression level of TNF-α,[4],significantly reduced
same,expression level of VEGF,[4],significantly reduced
same,expression of Clusterin-1,[5],significantly weakened
same,expression of HE4,[5],significantly weakened
same,expression of MUC6,[5],significantly weakened
same,expression of Mist1,[5],significantly weakened
same,expression of TFF2,[5],significantly weakened
same,expression level of IL-6,[6]; [8],significantly reduced
same,expression level of TNF-α,[6]; [8],significantly reduced
same,expression of GM-CSF,[6]; in vivo injection,effectively reduce
same,expression of IL-1β,[6]; in vivo injection,effectively reduce
same,expression of IL-33,[6]; in vivo injection,effectively reduce
same,expression of VEGF,[6]; in vivo injection,effectively reduce
same,number of GIF+/GSII+ double-positive cells,[7],decreased
same,number of GIF+/GSII+/Mist1+ triple-positive cells,[7],decreased
same,number of GIF+/Mist1+ double-positive cells,[7],decreased
same,"number of positive cells (GIF+, GSII+, Mist1+)",[7],decreased significantly
